Assay results as given in patent EP4644391A1, “NOVEL PHENYLQUINOLONE COMPOUND HAVING ANTIBACTERIAL AND ANTICANCER FUNCTIONS, AND PREPARATION THEREOF” (Alphamol Science Ltd (Shanghai), priority 2022, dated 2024).
In brackets after ≈: the same amount, converted by molar mass.

System: Staphylococcus aureus ATCC43300
Experiment: Resistance test of bacteria against compounds (serial passage, 21 days)
Assay type: cell-based
Settings: Staphylococcus aureus, ATCC43300, 504 h, read-out: MIC at the end of the experiment
Experimental: This example provides a resistance test of bacteria against compounds, and the specific experimental method is as follows. • 1. […] It was ensured that among the 6 final concentrations of the drug diluted into the wells, some were higher than the original MIC of the bacteria and some were lower than the original MIC of the bacteria. • 2. Preparation of bacterial liquid: 10 mL of culture medium was taken and added to a sterilized plate using a pipette, then 100 µL of the above-mentioned passaged bacterial liquid was added, and mixed well for later use. • 3. The above-mentioned diluted bacterial liquid was taken and added to a 96-well plate using a pipette, 180 µL per well, 3 wells per group, 6 groups in total. 20 µL of drug solution was added to each well (note: it is necessary to replace the pipette tip each time the drug is added), so that the final drug concentrations were 2 µg/mL, 1 µg/mL, 0.8 µg/mL, 0.4 µg/mL, 0.2 µg/mL, 0.1 µg/mL, respectively. The well with 200 µL of diluted bacterial liquid was used as the positive control well, and the well with 200 µL of culture medium was used as the negative control well.
The test object was Staphylococcus aureus (S. aureus). The specific results are shown in FIG1.

Structure (SMILES): CN[C@H](CC(C)C)C(=O)N[C@H]1C(=O)N[C@@H](CC(N)=O)C(=O)N[C@H]2C(=O)N[C@H]3C(=O)N[C@H](C(=O)N[C@H](C(=O)O)c4cc(O)cc(O)c4-c4cc3ccc4O)[C@H](O)c3ccc(c(Cl)c3)Oc3cc2cc(c3O[C@@H]2O[C@H](CO)[C@@H](O)[C@H](O)[C@H]2O[C@H]2C[C@](C)(N)[C@H](O)[C@H](C)O2)Oc2ccc(cc2Cl)[C@H]1O [vancomycin]
- MIC: 4 µg/mL (≈ 2.76 µM)
